The values that follow come from patent publication EP2387573B1, “6-PHENYL-1H-IMIDAZO[4,5-C]PYRIDINE-4-CARBONITRILE DERIVATIVES AS CATHEPSIN S AND/OR CATHEPSIN K INHIBITORS” (Organon BioSciences Nederland B.V., priority 2009, dated 2010).

Structures are written as SMILES. Structures can show the parent of a compound that is named as a salt.

The target of assay [1] is T1, Cathepsin S (Homo sapiens, UniProt P25774). Nature of the assay: Cathepsin S assay procedure (inhibition of recombinant enzyme, fluorogenic substrate Z-Val-Val-Arg-AMC). Conditions: pH5.5, fluorescence at 20 minutes; read-out: pIC50 (negative logarithm of the IC50 concentration) for inhibition of human cathepsin S (converted). Type of assay: biochemical. On the procedure: EXAMPLE 32 Cathepsin S assay procedure
T1 sequence (P25774 115-331): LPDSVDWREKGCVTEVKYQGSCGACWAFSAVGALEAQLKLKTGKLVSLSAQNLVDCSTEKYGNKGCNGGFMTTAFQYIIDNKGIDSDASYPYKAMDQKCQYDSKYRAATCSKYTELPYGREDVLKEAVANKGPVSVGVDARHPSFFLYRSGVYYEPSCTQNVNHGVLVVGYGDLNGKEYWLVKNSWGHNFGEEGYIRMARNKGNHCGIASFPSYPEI
25µl of a 2mg/l solution of activated recombinant human cathepsin S, in assay buffer, is then added to the well, yielding a final inhibitor concentration of 10µM.
Enzyme activity is determined by measuring the fluorescence of the liberated aminomethylcoumarin at […] using 390nm excitation, at 20 minutes. Percentage enzyme activity is calculated by comparison of this activity to that of a solution containing no inhibitor. Compounds are subsequently subjected to a dose response curve analysis in order to determine IC50 values for active compounds (where IC50 is the concentration of test compound causing 50 % inhibition of the enzymatic activity). Compounds of the invention typically have a pIC50 (negative logarithm of the IC50 concentration) for inhibition of human cathepsin S of more than 6. Most compounds of the invention have a pIC50 of more than 7, such as exemplified by the compounds of examples 1a, 1b, 2a, 7d, 12a, 14a, 14b, 14c, 14d, 14e, 14f, 14g, 14h, 14i, 17, 18.

In assay [2] the target is T1, Cathepsin S. Nature of the assay: Cell based lip10 assay (Lip10 accumulation, anti-CD74 ELISA). The arrangement: endogenous in cells; host or cells: Jiyoye human B lymphoblastoid cells. Conditions: Human B lymphoblastoid cells (Jiyoye), 24 hours, relative to E64d / LHVS-treated cells; read-out: pEC50 (negative logarithm of the EC50 concentration) (converted). From the text:
In some cases, these cell based activities are up to 100 fold greater than previously disclosed compounds in WO 2007/080191.
EXAMPLE 34 Cathepsin S assay
During normal antigen presentation, Lip10 is proteolytically degraded to enable loading of a peptide fragment and subsequent MHC-II presentation on the surface of antigen presenting cells. The cleavage process is mediated by Cathepsin S. Thus, the Lip10 assay is an in vitro measure of a compound's ability to block cathepsin S and by extension antigen presentation. A compound that causes the accumulation of Lip10 at low concentration would be expected to block presentation of antigens.
Cell based lip10 assay procedure
Human B lymphoblastoid cells (Jiyoye) were cultured in RPMI 1640 medium at a density of 500 000 cells/ml in 24-well plates. Cells were treated with a concentration range of compounds (0.001-10µM) and vehicle alone (DMSO, 0.1% v/v). In order to generate positive control treatments separate wells were treated with 10µM E64d & 0.1µM LHVS. The cells were incubated at 37°C in a humidified incubator containing 5% CO2. After 24 hours the plates were centrifuged at 150 x g for five minutes and the media removed. Cells were lysed by adding 65µl of ice-cold phosphate buffered saline (PBS) containing 1% (v/v) Triton X-100 and protease inhibitors and incubated on ice for 20 minutes. The samples were centrifuged at 18 000 x g for 15 minutes at 4°C and the resulting supernatants collected and stored at -80°C until required. After measurement of protein concentration using a micro-BCA protein assay all samples were diluted to 10µg protein/ml and 50µl of each sample were coated overnight at 4°C onto wells of high protein-binding 96-well plates. The wells were washed once with PBS (200µl/well) and then incubated at room temperature for 2 hours with 10µg/ml mouse anti-CD74 Pin.1 monoclonal antibody (50µl/well) in PBS containing 0.05% (v/v) Tween-20 (PBS-T) and 2% (w/v) BSA (PBS-T/BSA). Unbound antibody was then removed by washing three times with PBS-T and followed by the addition of rabbit anti-mouse IgG antibody conjugated to horseradish peroxidase. After washing five times with PBS-T 100µl of tetramethylbenzidine substrate was added to each well and incubated for 10 minutes on a plate shaker. The reaction was stopped by the addition of 100µl of 1 M hydrochloric acid. Antibody binding was quantified by measuring the optical density (OD, 450nm) using a Molecular Devices Spectramax Plus. The OD of vehicle-only treated cells was removed from all values and the data was expressed as a percentage of the OD generated from the mean E64d / LHVS-treated cells. The potency of compounds (EC50) was measured by calculating the concentration of inhibitor required to generate 50% inhibition relative to E64d / LHVS-treated cells.
Background: ELISA stands for enzyme-linked immunosorbent assay.

With `Cn1cnc2c(C#N)nc(-c3ccc(OCCC4CCN(CCF)CC4)c(C(F)(F)F)c3)cc21` [Example 14f, 6-(4-(2-(1-(2-fluoroethyl)piperidin-4-yl)ethoxy)-3-(trifluoromethyl)phenyl)-1-methyl-1H-imidazo[4,5-c]pyridine-4-carbonitrile], the IC50 on Cathepsin S [1] is less than 0.1 µM.

As for `CC(=O)N(C)CCCOc1ccc(-c2cc3c(ncn3C)c(C#N)n2)cc1C(F)(F)F` [Example 2a, 6-{4-[3-(N-acetyl-N-methylamino)propoxy]-3-(trifluoromethyl)-phenyl}-1-methyl-1H-imidazo[4,5-c]pyridine-4-carbonitrile], the IC50 at Cathepsin S [1] was less than 0.1 µM.

On to `Cn1cnc2c(C#N)nc(-c3ccc(OCCCNS(C)(=O)=O)c(C(F)(F)F)c3)cc21` [Example 1a, N-(3-(4-(4-cyano-1-methyl-1H-imidazo[4,5-c]pyridin-6-yl)-2-(trifluoromethyl)phenoxy)propyl)methanesulfonamide], for which the IC50 on Cathepsin S [1] was less than 0.1 µM.

As for `Cn1cnc2c(C#N)nc(-c3ccc(OCCC4CCN(Cc5nccs5)CC4)c(C(F)(F)F)c3)cc21` [Example 14i, 1-methyl-6-(4-(2-(1-(thiazol-2-ylmethyl)piperidin-4-yl)ethoxy)-3-(trifluoromethyl)-phenyl)-1H-imidazo[4,5-c]pyridine-4-carbonitrile], on Cathepsin S [1], the IC50 is less than 0.1 µM.

In the case of `Cn1cnc2c(C#N)nc(-c3ccc(OCCC4CCN(CC(F)F)CC4)c(C(F)(F)F)c3)cc21` [Example 14g, 6-(4-(2-(1-(2,2-difluoroethyl)piperidin-4-yl)ethoxy)-3-(trifluoromethyl)phenyl)-1-methyl-1H-imidazo[4,5-c]pyridine-4-carbonitrile], the IC50 on Cathepsin S [1] was less than 0.1 µM.

`CNc1cc(COc2ccc(-c3cc4c(ncn4C)c(C#N)n3)cc2C(F)(F)F)ccn1` [Example 12c, 1-Methyl-6-{4-[(2-(N-methylamino)-pyridin-4-yl)-methoxy]-3-(trifluoromethyl)-phenyl}-1H-imidazo[4,5-c]pyridine-4-carbonitrile]: the EC50 at Cathepsin S [2] is less than 0.1 µM.

In the case of `CCN(C)c1cc(COc2ccc(-c3cc4c(ncn4C)c(C#N)n3)cc2C(F)(F)F)ccn1` [Example 12a, 1-Methyl-6-{4-[(2-(N-ethyl-N-methylamino)-pyridin-4-yl)-methoxy]-3-(trifluoromethyl)-phenyl}-1H-imidazo[4,5-c]pyridine-4-carbonitrile Hydrocloride], the EC50 at Cathepsin S [2] was less than 0.1 µM. Further, the IC50 on Cathepsin S [1] was less than 0.1 µM.

Regarding `Cn1cnc2c(C#N)nc(-c3ccc(OCCC4CCN(Cc5ncco5)CC4)c(C(F)(F)F)c3)cc21` [Example 14a, 1-methyl-6-(4-(2-(1-(oxazol-2-ylmethyl)piperidin-4-yl)ethoxy)-3-(trifluoromethyl)phenyl)-1H-imidazo[4,5-c]pyridine-4-carbonitrile hydrochloride], the EC50 at Cathepsin S [2] was less than 0.1 µM. Also, the IC50 at Cathepsin S [1] is less than 0.1 µM.

In the case of `Cn1cnc2c(C#N)nc(-c3ccc(OCCN4C=NC(C)(C)C4=O)c(C(F)(F)F)c3)cc21` [Example 18, 6-(4-(2-(4,4-dimethyl-5-oxo-4,5-dihydro-1H-imidazol-1-yl)ethoxy)-3-(trifluoromethyl)phenyl)-1-methyl-1H-imidazo[4,5-c]pyridine-4-carbonitrile TFA salt], the IC50 on Cathepsin S [1] is less than 0.1 µM.

Take `CC(=O)NCCCOc1ccc(-c2cc3c(ncn3C)c(C#N)n2)cc1C(F)(F)F` [Example 1b, 6-[4-(3-acetylaminopropoxy)-3-(trifluoromethyl)-phenyl]-1-methyl-1H-imidazo[4,5-c]pyridine-4-carbonitrile]: the IC50 at Cathepsin S [1] was less than 0.1 µM.

With `Cc1cc(CN2CCC(CCOc3ccc(-c4cc5c(ncn5C)c(C#N)n4)cc3C(F)(F)F)CC2)no1` [Example 14b, 1-methyl-6-(4-(2-(1-((5-methylisoxazol-3-yl)methyl)piperidin-4-yl)ethoxy)-3-(trifluoromethyl)phenyl)-1H-imidazo[4,5-c]pyridine-4-carbonitrile], the EC50 on Cathepsin S [2] was less than 0.1 µM. The IC50 at Cathepsin S [1] is less than 0.1 µM.

Take `Cn1cnc2c(C#N)nc(-c3ccc(OCCC4CCN(CC(=O)N5CCCC5)CC4)c(C(F)(F)F)c3)cc21` [Example 14e, 6-(4-(2-(1-(2-oxo-2-(pyrrolidin-1-yl)ethyl)piperidin-4-yl)ethoxy)-3-(trifluoromethyl)phenyl)-1-methyl-1H-imidazo[4,5-c]pyridine-4-carbonitrile]: at Cathepsin S [1], the IC50 is less than 0.1 µM.

For the compound `Cc1noc(C)c1CN1CCC(CCOc2ccc(-c3cc4c(ncn4C)c(C#N)n3)cc2C(F)(F)F)CC1` [Example 14c, 6-(4-(2-(1-((3,5-dimethylisoxazol-4-yl)methyl)piperidin-4-yl)ethoxy)-3-(trifluoromethyl)phenyl)-1-methyl-1H-imidazo[4,5-c]pyridine-4-carbonitrile], at Cathepsin S [2], the EC50 was less than 0.1 µM. The IC50 on Cathepsin S [1] was less than 0.1 µM.

On to `CC(=O)N(C)CCOc1ccc(-c2cc3c(ncn3C)c(C#N)n2)cc1C(F)(F)F` [Example 7d, 1-methyl-6-(4-(2-(N-acetyl-N-methylamino)ethoxy)-3-(trifluoromethyl)phenyl)-1H-imidazo[4,5-c]pyridine-4-carbonitrile], for which the IC50 on Cathepsin S [1] was less than 0.1 µM.

Take `CCNc1cc(COc2ccc(-c3cc4c(ncn4C)c(C#N)n3)cc2C(F)(F)F)ccn1` [Example 12b, 1-Methyl-6-{4-[(2-(N-ethylamino)-pyridin-4-yl)-methoxy]-3-(trifluoromethyl)-phenyl}-1H-imidazo[4,5-c]pyridine-4-carbonitrile]: the EC50 at Cathepsin S [2] is less than 0.1 µM.

Consider `COCCN1CCC(CCOc2ccc(-c3cc4c(ncn4C)c(C#N)n3)cc2C(F)(F)F)CC1` [Example 14h, 6-(4-(2-(1-(2-methoxyethyl)piperidin-4-yl)ethoxy)-3-(trifluoromethyl)phenyl)-1-methyl-1H-imidazo[4,5-c]pyridine-4-carbonitrile], for which, at Cathepsin S [1], the IC50 was less than 0.1 µM.

As for `CN(C)C(=O)CN1CCC(CCOc2ccc(-c3cc4c(ncn4C)c(C#N)n3)cc2C(F)(F)F)CC1` [Example 14d, 6-(4-(2-(1-(2-dimethylamino-2-oxo-ethyl)piperidin-4-yl)ethoxy)-3-(trifluoromethyl)phenyl)-1-methyl-1H-imidazo[4,5-c]pyridine-4-carbonitrile], the EC50 on Cathepsin S [2] was less than 0.1 µM. In addition, on Cathepsin S [1], the IC50 is less than 0.1 µM.
